Data published in patent US8673652B2, “Immunoassay with extended detection window” (priority 2010, dated 2014).
Converted amounts (≈) assume the structure as drawn.

How the values were obtained:
[1] = test system: polyclonal antibody raised against zolpidem analogue derivatised at the 4'-phenyl ring coupled to BTG; test: Competitive ELISA for zolpidem (antibody specificity and sensitivity); type: binding, sheep; conditions: for IC50 / IC50 (ng/ml): competitive ELISA, hapten-HRP conjugate, absorbance at 450 nm; for % CR = percentage cross-reactivity based on 100% specificity to zolpidem: relative to zolpidem = 100%
Description: Analogues of zolpidem derivatised at the 4′-phenyl ring were coupled by way of a crosslinker to bovine thyroglobulin (BTG). The resulting immunogens were administered separately to adult sheep on a monthly basis to provide target-specific polyclonal antisera. IgG was extracted from the antisera via caprylic acid/ammonium sulphate precipitation of immunoglobulin. Microtitre plates were coated with antibody (125 μl/well) in coating buffer (10 mM Tris pH 8.5) at 37° C. for 2 h. The plates were then washed 4 times over 10 mins with working strength TBST. 50 μl of sample/standard (zolpidem, Sequioa SRP00500z; alpidem, TRC A575560; zaleplon, Sequioa SRP00300z; zopiclone, Sequioa SRP02000z; zolpidem Carboxylic Acid, Randox LK865 and zolpidem carboxylic acid, Randox LK855) was added to the appropriate wells in triplicate, followed by 75 μl of hapten-HRP conjugate and incubated at 25° C. for 1 h. The plates were then washed and 125 μl of TMB (Randox, 4380-15) was added to each well and left at room temperature for 20 mins in the dark. The reaction was stopped using 125 μl of 0.2M sulphuric acid. The absorbances were read at 450 nm with an ELISA microplate reader (BIO-TEK Instruments, Elx800) and the means calculated. Antibody specificity and sensitivity were then determined.
Competitive ELISA results in Table 1 and FIG. 3 highlight the specificity of the antibody of the disclosure towards zolpidem and cross-reactivity towards 4-[3-(2-N,N-dimethylamino-2-oxoethyl)-6-methylimidazo[1,2-a]pyridin-2-yl]benzoic acid. […] The disclosure, through its unique immunogens and antibodies, thus enables methods and kits able to detect and determine zolpidem and/or 4-[3-(2-N,N-dimethylamino-2-oxoethyl)-6-methylimidazo[1,2-a]pyridin-2-yl]benzoic acid with high sensitivity.

[2] = cited from earlier work

SMILES	IC50 [1] [ng/mL]	% CR = percentage cross-reactivity based on 100% specificity to zolpidem [1]	half-life ([2]; upon ingestion) [h]	IC50 (ng/ml) [1]	share of metabolite produced by cytochrome P450 mediated metabolism of zolpidem ([2]; metabolism mediated by cytochrome P450)
Cc1ccc(-c2nc3ccc(C)cn3c2CC(=O)N(C)C)cc1 [Zolpidem, N,N-dimethyl-2-[6-methyl-2-(4-methylphenyl)imidazo[1,2-a]pyridin-3-yl]acetamide]	0.63 (≈ 2.05 nM)	100%	1.5 to 3		
CCCN(CCC)C(=O)Cc1c(-c2ccc(Cl)cc2)nc2ccc(Cl)cn12 [Alpidem, alpidem]		<<1.26%		>>50 ng/ml	
Cc1ccc(-c2nc3ccc(C(=O)O)cn3c2CC(=O)N(C)C)cc1 [Hapten M2, 3-(2-N,N-dimethylamino-2-oxoethyl)-2-(4-methylphenyl)imidazo[1,2-a]pyridin-6-yl carboxylic acid]	>500	<0.13%			
CN1CCN(C(=O)OC2c3nccnc3C(=O)N2c2ccc(Cl)cn2)CC1 (centres unmarked) [Zopiclone, zopiclone]		<<1.26%		>>50 ng/ml	
CCN(C(C)=O)c1cccc(-c2ccnc3c(C#N)cnn23)c1 [Zaleplon, zaleplon]		<<1.26%		>>50 ng/ml	
Cc1ccc2nc(-c3ccc(C(=O)O)cc3)c(CC(=O)N(C)C)n2c1 [Hapten M1, 4-[3-(2-N,N-dimethylamino-2-oxoethyl)-6-methylimidazo[1,2-a]pyridin-2-yl]benzoic acid]	3.33 (≈ 9.87 nM)	18.6%			more than 80%
